Experimental data as given in patent publication US20110311601A1, “ANTIMICROBIAL MEDICAL DEVICES” (priority 2010, published 2011).
“And” between values parts separate entries of the source, which are not always exact repeats. Equal entries are not always repeated. Where no end group is shown, it is not given here.

Tests used:
[1] = test system: Escherichia coli strain DB3.1; assay: microdilution assay of hβD2 coated biopolymers (percentage killing); type: cell-based
Procedure: Microdilution assay. In the microdilution assay the microorganisms were exposed to a potential bio-active substance in liquid surrounding, thus free to move. This potential bio-active substance was either homogenously dispersed in the liquid surrounding by active mixing at the beginning of the tests or could spread out of the sample during incubation time. The bioactivity was measured in percentage killing, wherein the number of colony forming units (CFU) in a control without test substance was set to 0% killing and a reduction in the cell number to zero was set to 100% killing.
Fresh cells were harvested by centrifugation at 1600 rpm for 10 min, the supernatant was removed and the cell pellet was resuspended in 5 ml 10 mM sodium phosphate buffer. This procedure was repeated twice. The optical density was adjusted to OD600 of 0.500 with 10 mM sodium phosphate buffer. 100 μl of the bacterial suspension was pipetted in one well of a microtiter plate without optimized surface. 10 μl test substance or test sample was added. In case of a test substance, the mixture was homogenized by absorbing the mixture several times with a pipette. The microtiter plate is then closed with parafilm and incubated at 37° C. for 2 h. After incubation the substances in the wells were mixed by a pipette. […] For evaluation, the grown colonies were counted.
The microdilution assay facilitates the examination of the hβD2 release kinetics of the biopolymers and thus allowed conclusions on what amounts of hβD2 in which time could be released. For comparing on evaluation of the assay the effect of directly applied hβD2 amounts with the effect of hβD2 amounts applied on biopolymers, the achieved percentage killing of bacteria was compared to the killing rate of the hβD2 standard series in the microdilution assays.
The collagen scaffolds and polylactide matrices were examined in the microdilution assay regarding their hβD2 release kinetics. Since the incubation time of the samples in the bacterial suspension is limited, the samples were stored at −25° C. after the test and until completion of a further assay. The thawed samples were then used in a new assay and were incubated again.

[2] = test system: Escherichia coli strain DB3.1; assay: micro-dilution assay of coated titanium pins and peptide controls (bacterial killing, CFU); type: cell-based
Procedure: In a first experiment 10 μg of hβD2 was coated to three different SAM Hexadecyltrimethoxysilane (SAM 1), Dimethoxymethyloctylsilane (SAM 2), and oxidized Allyltrimethoxysilane (SAM 3) of the modified titanium pins. The anti-bacterial activity of the hβD2-coated pins was tested by a micro-dilution assay. Therefore, Escherichia coli strain DB3.1 (Invitrogen, Cat. No. 11782-018) was used. E. coli was streaked from a glycerol stock onto a Brain Heart Infusion (BHI) agar plate (3.7% (w/v) BHI Bouillon, 1.5% (w/v) Agar), grown overnight at 37° C. and subsequently used to inoculate 40 ml of 3.7% (w/v) BHI Bouillon without any antibiotics in 100 ml flasks. Fresh cells were harvested by centrifugation at 16000 rpm for 10 min and washed twice with 10 mM sodium phosphate buffer, pH 7.2. The optical density was adjusted to 10^4 cells/ml. For anti-bacterial testing, a single pin coated with hβD2 was incubated in one well of a microtiter plate containing 100 μl of the bacterial suspension.
Functionalized titanium pins without hβD2 served as negative controls (SAM1-n, SAM2-n, SAM3-n, SAM4::Col-NHS-n, SAM4::Col-Glu-n). In addition, 5 independent control reactions consisting of hβD2 in a final amount of 0 (NC), 0.02 (PC1), 0.2 (PC2), 2 (PC3) and 10 (PC4) μg were examined in parallel. To determine the specificity of the anti-bacterial activity of hβD2, 10 μl (10 μg/ml in PBS) of polyclonal monospecific anti-hβD2 antibodies were co-incubated with 10 μg of hβD2 and bacterial cells (Table I, PC4/ab).
The microtiter plates were incubated for 2 h at 37° C. The kinetic studies were performed by replacing the bacterial suspension, after 2 h of cultivation with a freshly pre-cultured E. coli solution, which contained the same bacterial concentration, and cultivating for another 2 h and so on. Colony forming units (CFU) were determined after plating 100 μl of a 1:100 dilution of the bacterial suspension on petri dishes with BHI medium and incubating them overnight at 37° C. For every group of the functionalized titanium pins and the controls, 5 independent anti-bacterial assays were performed. A control (NC) of bacterial growth was examined for every independent assay. The number of CFU on the control (consisting of a single petri dish) was set to 0% bactericidal activity. The reduction in the CFU resulting from the anti-bacterial activity of hβD2 was related to the absolute CFU of the control within every independent assay. This value, given as a percentage of the bacterial “killing” activity, was used to describe the antibacterial activity. This kind of normalisation of the antibacterial data was performed for every experimental group.
To examine the release behavior of hβD2 that is adsorbed by different SAM modified titanium pins a time kinetic experiment was performed. The experiment was performed analogous to Example 2. For this experiment 80 μg of hβD2 was adsorbed to three different SAMs Hexadecyltrimethoxysilane (SAM1), Dimethoxymethyloctylsilane (SAM2), and oxidized Allyltrimethoxysilane (SAM3) of the modified titanium pins.
Since it is known that collagen has a positive impact on wound healing, functionalised titanium pins with collagen were investigated. Two different cross-linking strategies for collagen on SAM3 and SAM4 were applied as described in Example 1: (i) a covalently binding strategy with the NHS/EDC cross-linking system, and (ii) the use of glutaraldehyde. Successful binding of collagen was monitored by collagen-specific DirectRed staining (as described in Example 1). […] Additionally 80 μg hβD2 was adsorbed to collagen functionalized SAM3 and SAM4 modified titanium pins, respectively. For monitoring the antibacterial activity of the bio-coated pins the experiment was performed analogous to Example 3. […]

Substance “human β-defensin-2 (GIGDPVTCLKSGAICHPVFCPRRYKQIGTCGLPGTKCCKKP; ends and bridges not checked; cysteine pairing not given here) [hβD2, recombinant hβD2]” has a bacteria killing ([1]; 2 μg hβD2 on collagen scaffold, after 13 hours) of 18%, a killing rate ([1]; 2 μg hβD2 on collagen scaffold, first 2 hours) of no more than 36% and a killing rate ([1]; 4 μg hβD2 and 5 μg chondroitin sulphate on collagen scaffold, 0-2 hours) of 54%. For the same substance, the killing ([1]; 4 μg hβD2 and 20 μg spermidine on collagen scaffold, 0-2 hours) was 19%, the killing rate ([1]; 4 μg hβD2 on collagen scaffold impregnated with 20 μl of 0.1 M L-glutamic acid solution, 0-2 hours) was 53% and the killing rate ([1]; 4 μg hβD2 on collagen scaffold impregnated with 20 μl of 0.1 M L-lysine solution, 0-2 hours) was 11%. For the same substance, the killing ([1]; 4 μg hβD2 on collagen scaffold pre-treated with 10 μl of 0.1% gelatine solution, 0-2 hours) was 94%, the killing rate ([1]; 4 μg hβD2 on collagen scaffold treated with 5 μg BSA, 0-2 hours) was 98% and the “killing of the bacteria” value ([1]; 4 μg hβD2 on collagen scaffold treated with 5 μg HAS, 0-2 hours) was 100%. The killing rate ([1]; 4 μg hβD2 on collagen scaffold treated with 60 μg poly-L-glutamic acid, 0-2 hours) was 23%, the killing rate ([1]; 4 μg hβD2 on collagen scaffold without pre-treatment, first 2 hours) was 89% and 86% and the killing ([1]; 4 μg hβD2 on collagen scaffold, 17th hour) was 25%. The “bio-activity of the scaffolds” value ([1]; 4 μg hβD2 on collagen scaffold, after 20 hours) was “depleted”, the “killing (given as release amount in %)” value ([1]; 4 μg hβD2 on collagen scaffold, first 5 hours) was 38% and the bacteria killing ([1]; 25 μg hβD2 on polylactide matrix coated with collagen and chondroitin sulphate, first two hours) was 89%. For the same substance, the bacteria killing ([1]; 25 μg hβD2 on polylactide matrix coated with collagen, first two hours) was 100%, the bacteria killing ([1]; 25 μg hβD2 on uncoated polylactide matrix, first two hours) was 100% and the killing ([1]; 30 μg hβD2 on collagen scaffold, after 13 hours) was 29%. For the same substance, the killing rate ([1]; 30 μg hβD2 on collagen scaffold, after 17 hours) was 22%, the “activity of the scaffold” value ([1]; 30 μg hβD2 on collagen scaffold, after 20 hours) was “inactive” and the killing rate ([1]; 30 μg hβD2 on collagen scaffold, first 5 hours) was 86%. The “killing (given as release amount in %)” value ([1]; 125 μg hβD2 on collagen scaffold, after 5 hours) was 93%, the “antmicrobial activity, bacterial killing [%]” value (shortened to “antmicrobial activity … [%]”) ([2]; control PC1: 0.02 μg rHuβD2, 2 h) was 14.80 ± 2.78% and the “antmicrobial activity … [%]” value ([2]; control PC2: 0.20 μg rHuβD2, 2 h) was 32.38 ± 2.93%. For the same substance, the “antmicrobial activity … [%]” value ([2]; control PC3: 2.00 μg rHuβD2, 2 h) was 92.80 ± 3.91%, the “antmicrobial activity … [%]” value ([2]; control PC4/ab: 10.00 μg rHuβD2 co-incubated with polyclonal anti-hβD2 antibodies, 2 h) was 0% and the “antmicrobial activity … [%]” value ([2]; control PC4: 10.00 μg rHuβD2, 2 h) was 100%.
